# From ChEMBL document CHEMBL5523766 (J Med Chem, 2024)
# Columns and labels:
# CYP3A4 = CYP3A4 (Homo sapiens, UniProt P08684); assay: Time dependent inhibition of CYP3A4 (unknown origin) at 10 uM relative to control; assay type: ADME; settings: read-out: TDI
# [1] = target: NUAK family SNF1-like kinase 1 (Homo sapiens) (UniProt O60285); assay: Inhibition of human ARK5 at 10 uM relative to control
# [2] = target: Serine/threonine-protein kinase BRSK2 (Homo sapiens, UniProt Q8IWQ3); assay: Inhibition of human BRSK2
# [3] = target: Interleukin-1 receptor-associated kinase 4 (Homo sapiens, UniProt Q9NWZ3); assay: Inhibition of human IRAK4
# [4] = AUClast in ICR mouse at 50 mg/kg,po measured upto 24 hrs by LC-MS/MS analysis; assay type: ADME, organism-based; settings: in vivo
# [5] = target: T1, Tyrosine-protein kinase BTK (Homo sapiens, UniProt Q06187); assay: Inhibition of human BTK at 10 uM relative to control
# HT-29 = assay: Antiproliferative activity against human HT-29 cells assessed as inhibition of cell growth incubated for 72 hrs by MTS assay; assay type: functional, cell-based; settings: HT-29, 72 h
# Granta-519 = assay: Antiproliferative activity against human Granta-519 cells assessed as inhibition of cell growth incubated for 72 hrs by MTS assay; assay type: functional, cell-based; settings: Granta-519, 72 h
# [6] = Tmax in ICR mouse at 50 mg/kg,po measured upto 24 hrs by LC-MS/MS analysis; assay type: ADME, organism-based; settings: in vivo
# [7] = target: Tyrosine-protein kinase ABL1 (Homo sapiens, UniProt P00519); assay: Inhibition of human ABL
# CYP2C19 = CYP2C19 (Homo sapiens, UniProt P33261); assay: Time dependent inhibition of CYP2C19 (unknown origin) at 10 uM relative to control; assay type: ADME; settings: read-out: TDI
# Aurora kinase B [8] = target: T2, Aurora kinase B (Homo sapiens, UniProt Q96GD4); assay: Inhibition of human Aurora B
# [9] = Apparent permeability across basolateral to apical side in human Caco-2 cells; assay type: ADME, cell-based
# Aurora kinase B [10] = target: T2, Aurora kinase B; assay: Inhibition of human Aurora B at 10 uM relative to control
# HCT-116 = assay: Antiproliferative activity against human HCT-116 cells assessed as inhibition of cell growth incubated for 72 hrs by MTS assay; assay type: functional, cell-based; settings: HCT-116, 72 h
# [11] = target: T3, Serine/threonine-protein kinase mTOR (Homo sapiens, UniProt P42345); assay: Inhibition of human mTOR at 10 uM relative to control
# [12] = Plasma protein binding in mouse; assay type: ADME, cell-free; settings: read-out: PPB (converted)
# [13] = target: Receptor-type tyrosine-protein kinase FLT3 (Homo sapiens) (UniProt P36888); assay: Inhibition of human FLT3 at 10 uM relative to control
# [14] = Apparent permeability across basolateral to apical side in dog MDCK-MDR1 cells; assay type: ADME, cell-based, Canis lupus familiaris
# [15] = target: T4, Tyrosine-protein kinase Lck (Homo sapiens, UniProt P06239); assay: Inhibition of human LCK
# AMPK alpha2/beta1/gamma1 = AMPK alpha2/beta1/gamma1 (Homo sapiens, UniProt P54619+P54646+Q9Y478); assay: Inhibition of human AMPK alpha2/beta1/gamma1; assay type: protein-complex assay
# [16] = Efflux ratio of apparent permeability across […] side in human Caco-2 cells; assay type: ADME, cell-based
# [17] = target: T1, Tyrosine-protein kinase BTK; assay: Inhibition of human BTK
# [18] = target: T3, Serine/threonine-protein kinase mTOR; assay: Inhibition of human mTOR
# [19] = target: T5, Cyclin-dependent kinase 2 (Homo sapiens, UniProt P24941); assay: Inhibition of human CDK2 at 10 uM relative to control
# [20] = target: Receptor-type tyrosine-protein kinase FLT3 (Homo sapiens, UniProt P36888); assay: Inhibition of human FLT3
# [21] = target: T4, Tyrosine-protein kinase Lck; assay: Inhibition of human LCK at 10 uM relative to control
# [22] = target: T6, Tyrosine-protein kinase JAK1 (Homo sapiens, UniProt P23458); assay: Inhibition of human JAK1 at 10 uM relative to control
# [23] = Lipophilicity, logD of compound at pH 7.4; assay type: physicochemical; settings: buffer
# PC-3 = assay: Antiproliferative activity against human PC-3 cells assessed as inhibition of cell growth incubated for 72 hrs by MTS assay; assay type: functional, cell-based; settings: PC-3, 72 h
# ATR/ATRIP = ATR/ATRIP (Homo sapiens, UniProt Q13535); assay: Inhibition of ATR/ATRIP (unknown origin) using 5-FAM-AK-17 as substrate preincubated with compound for 10 mins followed by ATP addition and measured after 240 mins by mobility shift assay; assay type: protein-complex assay
# [24] = target: Serine/threonine-protein kinase BRSK2 (Homo sapiens) (UniProt Q8IWQ3); assay: Inhibition of human BRSK2 at 10 uM relative to control
# [25] = AUCinfinity in ICR mouse at 50 mg/kg,po measured upto 24 hrs by LC-MS/MS analysis; assay type: ADME, organism-based; settings: in vivo
# [26] = target: NUAK family SNF1-like kinase 1 (Homo sapiens, UniProt O60285); assay: Inhibition of human ARK5
# NCI-H446 = assay: Antiproliferative activity against human NCI-H446 cells assessed as inhibition of cell growth incubated for 72 hrs by MTS assay; assay type: functional, cell-based; settings: NCI-H446, 72 h
# [27] = target: T5, Cyclin-dependent kinase 2; assay: Inhibition of human CDK2
# [28] = target: T6, Tyrosine-protein kinase JAK1; assay: Inhibition of human JAK1
# SUD4 = assay: Antiproliferative activity against human SU-DHL-4 cells assessed as inhibition of cell growth incubated for 72 hrs by MTS assay; assay type: functional, cell-based; settings: SU-DHL-4, 72 h
# [29] = target: AMPK alpha2/beta1/gamma1 (Homo sapiens) (UniProt P54646+P54619+Q9Y478); assay: Inhibition of human AMPK alpha2/beta1/gamma1 at 10 uM relative to control; assay type: protein-complex assay
# [30] = target: Serine/threonine-protein kinase 17B (Homo sapiens) (UniProt O94768); assay: Inhibition of human DRAK2 at 10 uM relative to control
# CYP2D6 = CYP2D6 (Homo sapiens, UniProt P10635); assay: Time dependent inhibition of CYP2D6 (unknown origin) at 10 uM relative to control; assay type: ADME; settings: read-out: TDI
# [31] = target: Serine/threonine-protein kinase 17B (Homo sapiens, UniProt O94768); assay: Inhibition of human DRAK2
# [32] = target: Tyrosine-protein kinase Mer (Homo sapiens, UniProt Q12866); assay: Inhibition of human MER
# [33] = Efflux ratio of apparent permeability across […] side in dog MDCK-MDR1 cells; assay type: ADME, cell-based, Canis lupus familiaris
# [34] = Half life in ICR mouse at 50 mg/kg,po measured upto 24 hrs by LC-MS/MS analysis; assay type: ADME, organism-based; settings: in vivo
# DLD-1 = assay: Antiproliferative activity against human DLD-1 cells assessed as inhibition of cell growth incubated for 72 hrs by MTS assay; assay type: functional, cell-based; settings: DLD-1, 72 h
# A2780 = assay: Antiproliferative activity against human A2780 cells assessed as inhibition of cell growth incubated for 72 hrs by MTS assay; assay type: functional, cell-based; settings: A2780, 72 h
# [35] = target: T7, Tyrosine-protein kinase Lyn (Homo sapiens, UniProt P07948); assay: Inhibition of human LYN at 10 uM relative to control
# [36] = target: T7, Tyrosine-protein kinase Lyn; assay: Inhibition of human LYN
# OCI-Ly10 = assay: Antiproliferative activity against human OCI-Ly10 cells assessed as inhibition of cell growth incubated for 72 hrs by MTS assay; assay type: functional, cell-based; settings: OCI-Ly10, 72 h
# CAPAN-1 = assay: Antiproliferative activity against human CAPAN-1 cells assessed as inhibition of cell growth incubated for 72 hrs by MTS assay; assay type: functional, cell-based; settings: CAPAN-1, 72 h
# CYP1A2 = CYP1A2 (Homo sapiens, UniProt P05177); assay: Time dependent inhibition of CYP1A2 (unknown origin) at 10 uM relative to control; assay type: ADME; settings: read-out: TDI
# [37] = Apparent permeability across apical to basolateral side in human Caco-2 cells; assay type: ADME, cell-based
# [38] = Cmax in ICR mouse at 50 mg/kg,po measured upto 24 hrs by LC-MS/MS analysis; assay type: ADME, organism-based; settings: in vivo
# CYP2C9 = CYP2C9 (Homo sapiens, UniProt P11712); assay: Time dependent inhibition of CYP2C9 (unknown origin) at 10 uM relative to control; assay type: ADME; settings: read-out: TDI
# [39] = target: Interleukin-1 receptor-associated kinase 4 (Homo sapiens) (UniProt Q9NWZ3); assay: Inhibition of human IRAK4 at 10 uM relative to control
# LoVo = assay: Antiproliferative activity against human LoVo cells assessed as inhibition of cell growth incubated for 72 hrs by MTS assay; assay type: functional, cell-based
# [40] = Apparent permeability across apical to basolateral side in dog MDCK-MDR1 cells; assay type: ADME, cell-based, Canis lupus familiaris
# [41] = target: Tyrosine-protein kinase Mer (Homo sapiens) (UniProt Q12866); assay: Inhibition of human MER at 10 uM relative to control
# Chain of Tyrosine-protein kinase Mer (Homo sapiens) (Q12866 whole entry): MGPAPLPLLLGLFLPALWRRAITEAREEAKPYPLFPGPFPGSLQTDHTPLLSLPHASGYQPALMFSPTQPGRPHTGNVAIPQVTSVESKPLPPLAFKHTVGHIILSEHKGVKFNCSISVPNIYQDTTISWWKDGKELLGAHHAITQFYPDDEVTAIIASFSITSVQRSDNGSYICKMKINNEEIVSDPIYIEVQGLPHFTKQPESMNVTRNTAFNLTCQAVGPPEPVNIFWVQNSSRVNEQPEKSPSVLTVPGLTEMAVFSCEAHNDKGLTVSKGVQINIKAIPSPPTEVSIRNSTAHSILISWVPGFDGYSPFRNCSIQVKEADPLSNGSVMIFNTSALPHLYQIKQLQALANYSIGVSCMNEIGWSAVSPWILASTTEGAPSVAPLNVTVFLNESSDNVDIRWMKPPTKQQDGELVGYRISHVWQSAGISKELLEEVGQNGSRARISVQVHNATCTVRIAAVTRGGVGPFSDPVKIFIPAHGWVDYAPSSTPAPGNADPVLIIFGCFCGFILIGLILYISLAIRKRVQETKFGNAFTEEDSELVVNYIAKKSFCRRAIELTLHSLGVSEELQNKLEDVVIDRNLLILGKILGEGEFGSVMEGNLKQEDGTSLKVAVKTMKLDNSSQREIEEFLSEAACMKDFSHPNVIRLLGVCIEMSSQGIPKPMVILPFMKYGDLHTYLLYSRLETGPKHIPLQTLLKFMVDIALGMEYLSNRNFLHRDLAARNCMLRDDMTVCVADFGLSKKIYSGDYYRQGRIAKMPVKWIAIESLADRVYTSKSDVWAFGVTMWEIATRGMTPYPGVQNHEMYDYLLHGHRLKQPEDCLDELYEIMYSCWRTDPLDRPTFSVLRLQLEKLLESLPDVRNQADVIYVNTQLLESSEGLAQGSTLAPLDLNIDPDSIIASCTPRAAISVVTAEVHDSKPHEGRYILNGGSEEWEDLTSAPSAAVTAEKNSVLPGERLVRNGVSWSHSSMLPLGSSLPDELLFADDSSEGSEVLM
# T1 sequence (Q06187 whole entry): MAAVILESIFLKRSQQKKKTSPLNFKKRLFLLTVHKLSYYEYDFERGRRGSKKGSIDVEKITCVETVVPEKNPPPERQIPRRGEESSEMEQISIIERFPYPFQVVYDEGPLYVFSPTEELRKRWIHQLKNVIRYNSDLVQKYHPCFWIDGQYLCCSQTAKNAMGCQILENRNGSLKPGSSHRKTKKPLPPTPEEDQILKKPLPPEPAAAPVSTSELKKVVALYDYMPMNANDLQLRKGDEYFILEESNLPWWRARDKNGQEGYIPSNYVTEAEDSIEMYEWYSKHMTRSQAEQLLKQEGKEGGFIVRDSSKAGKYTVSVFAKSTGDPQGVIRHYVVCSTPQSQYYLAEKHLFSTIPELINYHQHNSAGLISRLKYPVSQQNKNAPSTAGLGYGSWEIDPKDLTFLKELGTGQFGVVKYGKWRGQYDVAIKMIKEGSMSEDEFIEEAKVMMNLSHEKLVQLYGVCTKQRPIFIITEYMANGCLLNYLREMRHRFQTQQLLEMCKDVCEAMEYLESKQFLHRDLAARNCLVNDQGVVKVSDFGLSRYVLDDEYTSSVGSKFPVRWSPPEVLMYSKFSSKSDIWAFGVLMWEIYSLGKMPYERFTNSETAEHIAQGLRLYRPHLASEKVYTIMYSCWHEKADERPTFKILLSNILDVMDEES
# T6 sequence (P23458 whole entry): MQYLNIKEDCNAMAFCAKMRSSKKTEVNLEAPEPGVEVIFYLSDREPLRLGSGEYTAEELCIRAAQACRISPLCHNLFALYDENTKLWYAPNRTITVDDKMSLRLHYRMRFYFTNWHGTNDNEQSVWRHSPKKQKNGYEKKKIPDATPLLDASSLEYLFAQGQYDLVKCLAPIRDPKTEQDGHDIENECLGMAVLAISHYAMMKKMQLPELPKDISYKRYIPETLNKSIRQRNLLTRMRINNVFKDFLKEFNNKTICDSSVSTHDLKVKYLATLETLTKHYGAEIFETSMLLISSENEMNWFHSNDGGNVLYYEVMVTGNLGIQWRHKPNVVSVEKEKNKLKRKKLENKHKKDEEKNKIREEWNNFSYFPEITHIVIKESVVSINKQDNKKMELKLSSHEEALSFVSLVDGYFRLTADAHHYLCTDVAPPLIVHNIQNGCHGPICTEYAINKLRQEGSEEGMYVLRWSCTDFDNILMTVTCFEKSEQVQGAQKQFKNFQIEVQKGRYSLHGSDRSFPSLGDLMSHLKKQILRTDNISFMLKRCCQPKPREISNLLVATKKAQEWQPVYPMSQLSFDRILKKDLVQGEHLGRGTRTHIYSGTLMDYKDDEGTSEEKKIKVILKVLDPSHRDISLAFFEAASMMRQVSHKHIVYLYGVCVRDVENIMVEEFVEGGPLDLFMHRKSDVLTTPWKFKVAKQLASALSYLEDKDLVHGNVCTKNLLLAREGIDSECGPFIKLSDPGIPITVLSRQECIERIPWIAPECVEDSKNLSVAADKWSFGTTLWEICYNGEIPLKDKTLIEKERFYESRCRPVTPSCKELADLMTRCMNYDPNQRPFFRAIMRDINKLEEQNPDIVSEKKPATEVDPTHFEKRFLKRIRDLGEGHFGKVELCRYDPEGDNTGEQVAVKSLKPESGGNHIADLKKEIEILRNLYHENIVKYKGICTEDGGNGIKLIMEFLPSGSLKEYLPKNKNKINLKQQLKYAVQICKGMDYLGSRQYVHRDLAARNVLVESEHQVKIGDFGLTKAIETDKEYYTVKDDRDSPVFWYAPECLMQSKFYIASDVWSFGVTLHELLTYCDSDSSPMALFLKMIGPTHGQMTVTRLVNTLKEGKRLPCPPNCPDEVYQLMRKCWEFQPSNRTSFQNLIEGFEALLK
# T2 sequence (Q96GD4 whole entry): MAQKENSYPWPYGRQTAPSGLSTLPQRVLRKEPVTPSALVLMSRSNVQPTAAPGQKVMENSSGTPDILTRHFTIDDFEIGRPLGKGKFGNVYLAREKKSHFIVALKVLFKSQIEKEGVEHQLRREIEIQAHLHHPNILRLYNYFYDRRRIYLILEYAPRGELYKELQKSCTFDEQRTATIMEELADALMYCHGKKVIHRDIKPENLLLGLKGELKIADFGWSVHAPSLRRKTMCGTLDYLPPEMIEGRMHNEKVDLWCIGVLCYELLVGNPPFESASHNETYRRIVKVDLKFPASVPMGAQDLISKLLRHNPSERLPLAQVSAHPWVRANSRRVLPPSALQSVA
# Chain of Serine/threonine-protein kinase BRSK2 (Homo sapiens) (Q8IWQ3 whole entry): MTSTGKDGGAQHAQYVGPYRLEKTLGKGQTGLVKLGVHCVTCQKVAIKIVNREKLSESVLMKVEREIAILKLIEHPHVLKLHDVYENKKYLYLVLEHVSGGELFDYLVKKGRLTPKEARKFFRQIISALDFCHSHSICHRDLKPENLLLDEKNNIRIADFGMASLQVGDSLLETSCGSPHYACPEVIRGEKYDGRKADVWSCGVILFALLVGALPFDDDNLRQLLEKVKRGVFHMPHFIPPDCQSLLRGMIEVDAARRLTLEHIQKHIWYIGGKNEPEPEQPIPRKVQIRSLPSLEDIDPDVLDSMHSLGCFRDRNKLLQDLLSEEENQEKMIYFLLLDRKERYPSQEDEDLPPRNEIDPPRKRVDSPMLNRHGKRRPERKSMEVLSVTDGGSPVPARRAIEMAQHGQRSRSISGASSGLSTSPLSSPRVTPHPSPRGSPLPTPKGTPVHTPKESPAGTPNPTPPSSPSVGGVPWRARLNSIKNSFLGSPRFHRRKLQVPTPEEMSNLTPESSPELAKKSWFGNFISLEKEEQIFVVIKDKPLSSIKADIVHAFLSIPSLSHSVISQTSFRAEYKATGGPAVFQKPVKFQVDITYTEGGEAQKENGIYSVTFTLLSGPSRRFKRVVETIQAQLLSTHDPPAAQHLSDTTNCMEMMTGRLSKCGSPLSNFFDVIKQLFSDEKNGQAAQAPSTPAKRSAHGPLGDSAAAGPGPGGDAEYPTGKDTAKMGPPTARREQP
# Chain of Serine/threonine-protein kinase BRSK2 (Q8IWQ3 whole entry): as above
# Chain of NUAK family SNF1-like kinase 1 (Homo sapiens) (O60285 whole entry): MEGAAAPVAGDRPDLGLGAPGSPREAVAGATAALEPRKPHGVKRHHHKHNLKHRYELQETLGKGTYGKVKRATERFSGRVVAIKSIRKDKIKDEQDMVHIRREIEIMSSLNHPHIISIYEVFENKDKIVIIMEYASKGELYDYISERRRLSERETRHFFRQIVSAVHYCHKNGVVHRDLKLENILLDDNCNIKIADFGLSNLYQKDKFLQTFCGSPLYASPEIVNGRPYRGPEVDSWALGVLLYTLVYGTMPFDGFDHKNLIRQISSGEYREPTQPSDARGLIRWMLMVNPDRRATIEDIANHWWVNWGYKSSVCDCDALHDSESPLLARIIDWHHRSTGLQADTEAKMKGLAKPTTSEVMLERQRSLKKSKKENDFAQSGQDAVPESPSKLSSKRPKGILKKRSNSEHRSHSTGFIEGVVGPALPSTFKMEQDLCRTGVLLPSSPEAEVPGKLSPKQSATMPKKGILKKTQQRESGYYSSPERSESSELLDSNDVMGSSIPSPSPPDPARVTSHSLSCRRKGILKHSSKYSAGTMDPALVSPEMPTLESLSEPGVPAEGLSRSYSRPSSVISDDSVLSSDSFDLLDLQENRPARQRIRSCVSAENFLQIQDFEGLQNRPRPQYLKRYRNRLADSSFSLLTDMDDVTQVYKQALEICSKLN
# Chain of NUAK family SNF1-like kinase 1 (O60285 whole entry): as above
# Chain of Tyrosine-protein kinase Mer (Q12866 whole entry): as the sequence (Q12866 whole entry) above
# Chain of Serine/threonine-protein kinase 17B (Homo sapiens) (O94768 whole entry): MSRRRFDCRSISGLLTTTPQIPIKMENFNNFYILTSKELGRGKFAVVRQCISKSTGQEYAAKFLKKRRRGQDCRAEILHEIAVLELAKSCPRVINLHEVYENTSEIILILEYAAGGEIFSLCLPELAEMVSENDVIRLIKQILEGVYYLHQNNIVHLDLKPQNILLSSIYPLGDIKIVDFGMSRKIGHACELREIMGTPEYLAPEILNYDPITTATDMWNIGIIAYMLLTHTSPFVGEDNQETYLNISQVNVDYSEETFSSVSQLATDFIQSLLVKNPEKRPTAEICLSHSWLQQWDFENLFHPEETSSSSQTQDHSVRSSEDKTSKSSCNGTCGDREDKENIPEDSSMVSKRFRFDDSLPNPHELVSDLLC
structure (smiles),measurement,setting,value
C[C@@H]1COCCN1c1nc(-c2cncc3[nH]ccc23)nc2c1ccn2S(C)(=O)=O,inhibition at 10 µM,CYP3A4,18.6%
same,inhibition,[1],20.5%
same,IC50,[2],> 10000 nM
same,IC50,[3],> 10000 nM
same,AUC(0-t) at 24 h,[4],46700 ng·h/mL
same,inhibition,[5],41.8%
same,IC50,HT-29,350 nM
same,IC50,Granta-519,100 nM
same,Tmax,[6],0.5 h
same,IC50,[7],> 10000 nM
same,inhibition at 10 µM,CYP2C19,0%
same,IC50,Aurora kinase B [8],> 10000 nM
same,Papp B→A,[9],30.2 ×10⁻⁶ cm/s
same,inhibition,Aurora kinase B [10],22.5%
same,IC50,HCT-116,150 nM
same,inhibition,[11],102%
same,fraction unbound,[12],0.006
same,inhibition,[13],62.8%
same,Papp B→A,[14],29 ×10⁻⁶ cm/s
same,IC50,[15],4950 nM
same,IC50,AMPK alpha2/beta1/gamma1,> 10000 nM
same,efflux ratio,[16],1.41
same,IC50,[17],> 10000 nM
same,IC50,[18],22.4 nM
same,inhibition,[19],5.98%
same,IC50,[20],> 10000 nM
same,inhibition,[21],79.2%
same,inhibition,[22],29.5%
same,logD,[23],3.11
same,IC50,PC-3,780 nM
same,IC50,ATR/ATRIP,1.6 nM
same,inhibition,[24],21.6%
same,AUC(0-inf),[25],46700 ng·h/mL
same,IC50,[26],> 10000 nM
same,IC50,NCI-H446,230 nM
same,IC50,[27],> 10000 nM
same,IC50,[28],> 10000 nM
same,IC50,SUD4,300 nM
same,inhibition,[29],1.11%
same,inhibition,[30],24.6%
same,inhibition at 10 µM,CYP2D6,3.71%
same,IC50,[31],> 10000 nM
same,IC50,[32],> 10000 nM
same,efflux ratio,[33],4.81
same,half-life,[34],2.01 h
same,IC50,DLD-1,460 nM
same,IC50,A2780,90 nM
same,inhibition,[35],13.3%
same,IC50,[36],> 10000 nM
same,IC50,OCI-Ly10,100 nM
same,IC50,CAPAN-1,820 nM
same,inhibition at 10 µM,CYP1A2,28.6%
same,Papp A→B,[37],21.5 ×10⁻⁶ cm/s
same,Cmax,[38],18900 ng/mL
same,inhibition at 10 µM,CYP2C9,0%
same,inhibition,[39],46.1%
same,IC50,LoVo,150 nM
same,Papp A→B,[40],6.02 ×10⁻⁶ cm/s
same,inhibition,[41],35.7%
